Measurements as given in ChEMBL document CHEMBL1201862, “PubChem BioAssay data set” (2004).
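Tested at 5 concentrations; 48 h exposure; 96-well plates; endpoints linearly interpolated, else capped at highest concentration. The concentration for 50% growth inhibition is given as GI50.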 The source made the active and inactive calls. No stated cut-off is given here; in the data, active = GI50 up to about 1.1 µM and inactive = higher.

Experiments:
Assay in all cases: NCI-60 cell line screen, 48 h
HCT-116 = system: HCT-116
U-251 = system: U-251
KM-20L2 = system: KM-20L2
SK-MEL-28 = system: SK-MEL-28
SNB-75 = system: SNB-75
A498 = system: A498
DMS-273 = system: DMS-273
HCC 2998 = system: HCC 2998
UACC-257 = system: UACC-257
ACHN = system: ACHN
KM12 = system: KM12
COLO 205 = system: COLO 205
SK-OV-3 = system: SK-OV-3
SK-MEL-2 = system: SK-MEL-2
HOP-62 = system: HOP-62
SF-539 = system: SF-539
SF-295 = system: SF-295
RXF 393 = system: RXF 393
Malme-3M = system: Malme-3M
NCI-H522 = system: NCI-H522
HL-60 = system: HL-60
NCI-H23 = system: NCI-H23
786-0 = system: 786-0
OVCAR-5 = system: OVCAR-5
OVCAR-3 = system: OVCAR-3
DLD-1 = system: DLD-1
NCI-H460 = system: NCI-H460
OVCAR-4 = system: OVCAR-4
SW-620 = system: SW-620
RPMI-8226 = system: RPMI-8226
M14 = system: M14
OVCAR-8 = system: OVCAR-8
CCRF-CEM = system: CCRF-CEM
UO-31 = system: UO-31
CAKI-1 = system: CAKI-1
HCT-15 = system: HCT-15
TK-10 = system: TK-10
NCI-H226 = system: NCI-H226
A549 = system: A549
SNB-78 = system: SNB-78
IGROV-1 = system: IGROV-1
SNB-19 = system: SNB-19
SN12C = system: SN12C
EKVX = system: EKVX
M19-MEL = system: M19-MEL
MOLT-4 = system: MOLT-4
SF-268 = system: SF-268
DMS-114 = system: DMS-114
HT-29 = system: HT-29
K562 = system: K562
UACC-62 = system: UACC-62
SK-MEL-5 = system: SK-MEL-5
HOP-18 = system: HOP-18
LOX IMVI = system: LOX IMVI
HOP-92 = system: HOP-92

With `O=c1c2ccccc2c(=O)c2c1cc(Cl)c1[nH]c3c([nH]c12)c(Cl)cc1c(=O)c2ccccc2c(=O)c13` the GI50 (HCT-116) was > 100 µM (inactive), the GI50 (U-251) was > 100 µM (inactive) and the GI50 (KM-20L2) was > 100 µM (inactive). For the same compound, the GI50 (SK-MEL-28) was > 100 µM (inactive), the GI50 (SNB-75) was > 100 µM (inactive) and the GI50 (A498) was > 100 µM (inactive). For the same compound, the GI50 (DMS-273) was > 100 µM (inactive), the GI50 (HCC 2998) was > 100 µM (inactive) and the GI50 (UACC-257) was > 100 µM (inactive). For the same compound, the GI50 (ACHN) was > 100 µM (inactive), the GI50 (KM12) was > 100 µM (inactive) and the GI50 (COLO 205) was > 100 µM (inactive). The GI50 (SK-OV-3) was > 100 µM (inactive), the GI50 (SK-MEL-2) was > 100 µM (inactive) and the GI50 (HOP-62) was > 100 µM (inactive). The GI50 (SF-539) was > 100 µM (inactive), the GI50 (SF-295) was > 100 µM (inactive) and the GI50 (RXF 393) was > 100 µM (inactive). For the same compound, the GI50 (Malme-3M) was > 100 µM (inactive), the GI50 (NCI-H522) was > 100 µM (inactive) and the GI50 (HL-60) was > 100 µM (inactive). The GI50 (NCI-H23) was > 100 µM (inactive), the GI50 (786-0) was > 100 µM (inactive) and the GI50 (OVCAR-5) was > 100 µM (inactive). The GI50 (OVCAR-3) was > 100 µM (inactive), the GI50 (DLD-1) was > 100 µM (inactive) and the GI50 (NCI-H460) was > 100 µM (inactive). The GI50 (OVCAR-4) was > 100 µM (inactive), the GI50 (SW-620) was > 100 µM (inactive) and the GI50 (RPMI-8226) was > 100 µM (inactive). The GI50 (M14) was > 100 µM (inactive), the GI50 (OVCAR-8) was > 100 µM (inactive) and the GI50 (CCRF-CEM) was > 100 µM (inactive). The GI50 (UO-31) was > 100 µM (inactive), the GI50 (CAKI-1) was > 100 µM (inactive) and the GI50 (HCT-15) was over 100 µM. For the same compound, the GI50 (TK-10) was > 100 µM (inactive), the GI50 (NCI-H226) was > 100 µM (inactive) and the GI50 (A549) was > 100 µM (inactive). The GI50 (SNB-78) was > 100 µM (inactive), the GI50 (IGROV-1) was > 100 µM (inactive) and the GI50 (SNB-19) was > 100 µM (inactive). The GI50 (SN12C) was > 100 µM (inactive), the GI50 (EKVX) was > 100 µM (inactive) and the GI50 (M19-MEL) was > 100 µM (inactive). For the same compound, the GI50 (MOLT-4) was > 100 µM (inactive), the GI50 (SF-268) was > 100 µM (inactive) and the GI50 (DMS-114) was > 100 µM (inactive). For the same compound, the GI50 (HT-29) was > 100 µM (inactive), the GI50 (K562) was > 100 µM (inactive) and the GI50 (UACC-62) was > 100 µM (inactive).
For `Cc1nc(-c2cccnc2)sc1C(=O)/C=C/c1ccc(Cl)cc1Cl`, the GI50 (SK-MEL-5) was > 100 µM (inactive), the GI50 (U-251) was > 100 µM (inactive) and the GI50 (KM-20L2) was > 100 µM (inactive). The GI50 (SK-MEL-28) was > 100 µM (inactive), the GI50 (SNB-75) was 92.9 µM (inactive) and the GI50 (A498) was > 100 µM (inactive). The GI50 (DMS-273) was > 100 µM (inactive), the GI50 (HCC 2998) was > 100 µM (inactive) and the GI50 (HOP-18) was > 100 µM (inactive). For the same compound, the GI50 (UACC-257) was > 100 µM (inactive), the GI50 (ACHN) was > 100 µM (inactive) and the GI50 (LOX IMVI) was 95.3 µM (inactive). For the same compound, the GI50 (KM12) was > 100 µM (inactive), the GI50 (COLO 205) was > 100 µM (inactive) and the GI50 (SK-OV-3) was > 100 µM (inactive). For the same compound, the GI50 (SK-MEL-2) was > 100 µM (inactive), the GI50 (HOP-62) was > 100 µM (inactive) and the GI50 (SF-539) was > 100 µM (inactive). For the same compound, the GI50 (SF-295) was > 100 µM (inactive), the GI50 (RXF 393) was 53.8 µM (inactive) and the GI50 (Malme-3M) was > 100 µM (inactive). For the same compound, the GI50 (NCI-H522) was 94.6 µM (inactive), the GI50 (HL-60) was 51.3 µM (inactive) and the GI50 (NCI-H23) was > 100 µM (inactive). The GI50 (786-0) was > 100 µM (inactive), the GI50 (OVCAR-5) was > 100 µM (inactive) and the GI50 (OVCAR-3) was > 100 µM (inactive). The GI50 (DLD-1) was > 100 µM (inactive), the GI50 (NCI-H460) was > 100 µM (inactive) and the GI50 (SW-620) was 71.9 µM (inactive). For the same compound, the GI50 (HOP-92) was > 100 µM (inactive), the GI50 (RPMI-8226) was 31.5 µM (inactive) and the GI50 (OVCAR-8) was > 100 µM (inactive). The GI50 (CCRF-CEM) was 47.5 µM (inactive), the GI50 (UO-31) was > 100 µM (inactive) and the GI50 (CAKI-1) was > 100 µM (inactive). For the same compound, the GI50 (HCT-15) was over 100 µM, the GI50 (TK-10) was > 100 µM (inactive) and the GI50 (NCI-H226) was > 100 µM (inactive). For the same compound, the GI50 (A549) was > 100 µM (inactive), the GI50 (SNB-78) was > 100 µM (inactive) and the GI50 (IGROV-1) was > 100 µM (inactive). The GI50 (SN12C) was > 100 µM (inactive), the GI50 (EKVX) was > 100 µM (inactive) and the GI50 (M19-MEL) was > 100 µM (inactive). For the same compound, the GI50 (MOLT-4) was 73.6 µM (inactive), the GI50 (SF-268) was > 100 µM (inactive) and the GI50 (DMS-114) was 84.3 µM (inactive). The GI50 (HT-29) was > 100 µM (inactive), the GI50 (K562) was 76.4 µM (inactive) and the GI50 (UACC-62) was 83.9 µM (inactive).
In the case of `CCN(CC)C(=O)CNC(=O)OC(C)(C)C`, the GI50 (SK-MEL-5) is reported as > 100 µM (inactive), the GI50 (HCT-116) is reported as > 100 µM (inactive) and the GI50 (U-251) is reported as > 100 µM (inactive). The GI50 (KM-20L2) was > 100 µM (inactive), the GI50 (SK-MEL-28) was > 100 µM (inactive) and the GI50 (SNB-75) was > 100 µM (inactive). For the same compound, the GI50 (A498) was > 100 µM (inactive), the GI50 (DMS-273) was > 100 µM (inactive) and the GI50 (HCC 2998) was > 100 µM (inactive). The GI50 (UACC-257) was > 100 µM (inactive), the GI50 (ACHN) was > 100 µM (inactive) and the GI50 (LOX IMVI) was > 100 µM (inactive). The GI50 (KM12) was > 100 µM (inactive), the GI50 (SK-OV-3) was > 100 µM (inactive) and the GI50 (SK-MEL-2) was > 100 µM (inactive). The GI50 (HOP-62) was > 100 µM (inactive), the GI50 (SF-539) was > 100 µM (inactive) and the GI50 (SF-295) was > 100 µM (inactive). The GI50 (RXF 393) was > 100 µM (inactive), the GI50 (Malme-3M) was > 100 µM (inactive) and the GI50 (NCI-H522) was > 100 µM (inactive). The GI50 (HL-60) was > 100 µM (inactive), the GI50 (NCI-H23) was > 100 µM (inactive) and the GI50 (786-0) was > 100 µM (inactive). The GI50 (OVCAR-5) was > 100 µM (inactive), the GI50 (OVCAR-3) was > 100 µM (inactive) and the GI50 (DLD-1) was > 100 µM (inactive). The GI50 (NCI-H460) was > 100 µM (inactive), the GI50 (OVCAR-4) was > 100 µM (inactive) and the GI50 (SW-620) was > 100 µM (inactive). The GI50 (HOP-92) was > 100 µM (inactive), the GI50 (RPMI-8226) was > 100 µM (inactive) and the GI50 (M14) was > 100 µM (inactive). The GI50 (OVCAR-8) was > 100 µM (inactive), the GI50 (CCRF-CEM) was > 100 µM (inactive) and the GI50 (UO-31) was > 100 µM (inactive). The GI50 (CAKI-1) was > 100 µM (inactive), the GI50 (HCT-15) was over 100 µM and the GI50 (TK-10) was > 100 µM (inactive). For the same compound, the GI50 (NCI-H226) was > 100 µM (inactive), the GI50 (A549) was > 100 µM (inactive) and the GI50 (SNB-78) was > 100 µM (inactive). For the same compound, the GI50 (IGROV-1) was > 100 µM (inactive), the GI50 (SNB-19) was > 100 µM (inactive) and the GI50 (SN12C) was > 100 µM (inactive). The GI50 (EKVX) was > 100 µM (inactive), the GI50 (M19-MEL) was > 100 µM (inactive) and the GI50 (MOLT-4) was > 100 µM (inactive). For the same compound, the GI50 (SF-268) was > 100 µM (inactive), the GI50 (DMS-114) was > 100 µM (inactive) and the GI50 (HT-29) was > 100 µM (inactive). The GI50 (K562) was > 100 µM (inactive) and the GI50 (UACC-62) was > 100 µM (inactive).
